Literature values as cited in patent US10035822B2, “Cell-reactive, long-acting, or targeted compstatin analogs and related compositions and methods” (APELLIS PHARMACEUTICALS, INC., priority 2012, dated 2018).
Non-standard residues stand in square brackets, D forms with d. Trp(6-F) = N[C@@H](Cc1c[nH]c2cc(F)ccc12)C(=O)O; Bpa = N[C@@H](Cc1ccc(C(=O)c2ccccc2)cc1)C(=O)O; 1Nal = N[C@@H](Cc1cccc2ccccc12)C(=O)O; 2Nal = N[C@@H](Cc1ccc2ccccc2c1)C(=O)O

Test system: complement activation
Details: relative to compstatin amidated at the C-terminus; published data (WO2004/026328, WO2007044668, Mallik 2005, Katragadda 2006); cited from earlier work
In the case of “Ac-ICV(1-Nal)QDWGAHRCT-COOH (Ac-ICV[1Nal]QDWGAHRCT-OH; cysteine pairing not given here) [Ac V4(1-Nal)/H9A-OH]”, the Activity over compstatin is listed as 30× more.
In the case of “Ac-ICV(2-IgI)QDWGAHRCT-CONH2 (Ac-ICV[2‑Igl]QDWGAHRCT-NH2; cysteine pairing not given here) [Ac-V42IgI/H9A]”, the Activity over compstatin is given as 39× more.
For “Ac-ICV(2-IgI)QDWGAHRCT-COOH (Ac-ICV[2‑Igl]QDWGAHRCT-OH; cysteine pairing not given here) [Ac-V42IgI/H9A-OH]”, the Activity over compstatin is given as 37× more.
For “Ac-ICV(2-Nal)QDWGAHRCT-CONH2 (Ac-ICV[2Nal]QDWGAHRCT-NH2; cysteine pairing not given here) [Ac-V4(2-Nal)/H9A]”, the Activity over compstatin is given as 99× more.
For “Ac-ICV(2-Nal)QDWGAHRCT-COOH (Ac-ICV[2Nal]QDWGAHRCT-OH; cysteine pairing not given here) [Ac V4(2-Nal)/H9A-OH]”, the Activity over compstatin is given as 38× more.
In the case of “Ac-ICV(5-methyl-W)QDWGAHRCT-CONH2 [Ac-V4(5-MeW)/H9A]”, the Activity over compstatin is listed as 67× more.
For “Ac-ICV(5fW)QDWGAHRCT-CONH2 [Ac-V4(5fW)/H9A]”, the Activity over compstatin is listed as 31× more.
In the case of “Ac-ICV(Bpa)QDWGAHRCT-CONH2 (Ac-ICV[Bpa]QDWGAHRCT-NH2; cysteine pairing not given here) [Ac-V4(Bpa)/H9A]”, the Activity over compstatin is given as 86× more.
For “Ac-ICV(Bpa)QDWGAHRCT-COOH (Ac-ICV[Bpa]QDWGAHRCT-OH; cysteine pairing not given here) [Ac-V4(Bpa)/H9A-OH]”, the Activity over compstatin is listed as 49× more.
For “Ac-ICVDhtQDWGAHRCT-COOH [Ac-V4Dht/H9A-OH]”, the Activity over compstatin is given as 5× more.
In the case of Ac-ICVVQDWGHHRCT-CONH2 [Ac-compstatin], the Activity over compstatin is listed as 3× more.
For “Ac-ICVWQD(5fW)GAHRCT-CONH2 [Ac-V4W/W7(5fW)/H9A]”, the Activity over compstatin is listed as 121× more.
For Ac-ICVWQDWGAHRCT-CONH2 [Ac-V4W/H9A], the Activity over compstatin is given as 45× more.
In the case of “Ac-ICVWQDWGAHRCdT-COOH [Ac-V4W/H9A/T13dT-OH]”, the Activity over compstatin is given as 55× more.
For Ac-ICVYQDWGAHRCT-CONH2 [Ac-V4Y/H9A], the Activity over compstatin is listed as 14× more.
In the case of “H-GICV(6fW)QD(6fW)GAHRCTN-COOH (H-GICV[Trp(6-F)]QD[Trp(6-F)]GAHRCTN-OH; cysteine pairing not given here) [+G/V4(6fW)/W7(6fW)H9A + N-OH]”, the Activity over compstatin is given as 126× more.
